Laboratory results reported in ChEMBL document CHEMBL4765282, “Design, synthesis and biological evaluation of 1H-pyrazolo [3,4-d]pyrimidine derivatives as PAK1 inhibitors that trigger apoptosis, ER stress and anti-migration effect in MDA-MB-231 cells” (Eur J Med Chem, 2020).
pIC50: −log10 of the molar value. Calls of active or inactive are those of the source. No cut-off for these calls is given here.

Legend:
Homo sapiens = species: Homo sapiens; test: Selectivity ratio of IC50 for inhibition of PAK3 (unknown origin) to IC50 for inhibition of PAK1 (unknown origin)
[1] = molecular target: Serine/threonine-protein kinase PAK 3 (Homo sapiens, UniProt O75914); test: Inhibition of PAK3 (unknown origin) […] measured after 40 mins by ADP-glo kinase assay
Serine/threonine-protein kinase PAK 3, sequence (O75914 whole entry): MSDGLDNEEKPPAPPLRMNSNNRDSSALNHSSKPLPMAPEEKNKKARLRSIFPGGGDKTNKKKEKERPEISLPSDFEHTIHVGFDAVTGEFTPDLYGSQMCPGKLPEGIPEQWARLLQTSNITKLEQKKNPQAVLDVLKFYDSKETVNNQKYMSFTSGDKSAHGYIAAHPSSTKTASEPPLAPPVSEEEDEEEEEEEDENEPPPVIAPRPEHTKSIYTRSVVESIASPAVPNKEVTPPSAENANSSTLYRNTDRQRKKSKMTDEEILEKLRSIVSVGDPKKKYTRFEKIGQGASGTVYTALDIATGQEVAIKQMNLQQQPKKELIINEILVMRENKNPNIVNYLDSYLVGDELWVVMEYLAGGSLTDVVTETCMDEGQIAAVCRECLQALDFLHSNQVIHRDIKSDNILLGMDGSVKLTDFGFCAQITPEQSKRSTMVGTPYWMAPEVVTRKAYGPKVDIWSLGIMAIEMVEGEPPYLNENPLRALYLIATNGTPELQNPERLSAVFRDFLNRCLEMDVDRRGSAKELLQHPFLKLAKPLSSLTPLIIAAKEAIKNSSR

MDA-MB-231 [2] = test: Down regulation of PAK1 expression in human MDA-MB-231 cells at 20 uM measured after 24 hrs by immunofluorescence analysis; assay type: functional, cell-based
[3] = molecular target: T1, Serine/threonine-protein kinase PAK 1 (Homo sapiens, UniProt Q13153); test: Inhibition of PAK1 phosphorylation at Ser199 residues in human MDA-MB-231 cells at 10 to 40 uM measured after 24 hrs by Western blot analysis; assay type: cell-based; settings: dose 10-40 µM
T1 sequence (Q13153 whole entry): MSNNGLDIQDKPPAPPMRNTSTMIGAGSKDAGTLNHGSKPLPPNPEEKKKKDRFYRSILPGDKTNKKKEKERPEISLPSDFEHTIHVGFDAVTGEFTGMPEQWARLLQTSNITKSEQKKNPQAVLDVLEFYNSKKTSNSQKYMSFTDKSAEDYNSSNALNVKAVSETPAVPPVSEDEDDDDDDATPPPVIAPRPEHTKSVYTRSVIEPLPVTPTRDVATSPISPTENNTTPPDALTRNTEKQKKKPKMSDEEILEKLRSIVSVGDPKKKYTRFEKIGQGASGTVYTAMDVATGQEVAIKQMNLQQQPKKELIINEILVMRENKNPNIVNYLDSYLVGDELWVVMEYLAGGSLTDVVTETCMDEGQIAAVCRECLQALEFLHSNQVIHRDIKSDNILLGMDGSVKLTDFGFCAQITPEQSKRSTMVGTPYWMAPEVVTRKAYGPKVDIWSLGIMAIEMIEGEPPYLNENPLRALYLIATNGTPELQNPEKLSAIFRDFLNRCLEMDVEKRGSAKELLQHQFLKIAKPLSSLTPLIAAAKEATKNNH

[4] = molecular target: T1, Serine/threonine-protein kinase PAK 1; test: Inhibition of PAK1 in human MDA-MB-231 cells assessed as reduction in c-Raf phosphorylation at Ser259 residues at 10 to 40 uM measured after 24 hrs by Western blot analysis; assay type: cell-based; settings: dose 10-40 µM
MDA-MB-231 [5] = test: Induction of apoptosis in human MDA-MB-231 cells assessed as increase in early apoptosis measured after 24 hrs by Annexin V-FITC/propidium iodide staining based flow cytometry; assay type: functional, cell-based
MDA-MB-231 [6] = test: Induction of apoptosis in human MDA-MB-231 cells assessed as early apoptotic cells at 10 uM measured after 24 hrs by Annexin V-FITC/propidium iodide staining based flow cytometry (reference value: 0.81%); assay type: functional
MDA-MB-231 [7] = test: Induction of apoptosis in human MDA-MB-231 cells assessed as late apoptotic cells at 10 uM measured after 24 hrs by Annexin V-FITC/propidium iodide staining based flow cytometry (reference value: 0.57%); assay type: functional
MDA-MB-231 [8] = test: Induction of apoptosis in human MDA-MB-231 cells assessed as necrotic cells at 10 uM measured after 24 hrs by Annexin V-FITC/propidium iodide staining based flow cytometry (reference value: 0.16%); assay type: functional
MDA-MB-231 [9] = test: Induction of apoptosis in human MDA-MB-231 cells assessed as viable cells at 20 uM measured after 24 hrs by Annexin V-FITC/propidium iodide staining based flow cytometry (reference value: 98.46%); assay type: functional; settings: read-out: Activity
MDA-MB-231 [10] = test: Induction of apoptosis in human MDA-MB-231 cells assessed as early apoptotic cells at 20 uM measured after 24 hrs by Annexin V-FITC/propidium iodide staining based flow cytometry (reference value: 0.81%); assay type: functional
MDA-MB-231 [11] = test: Induction of apoptosis in human MDA-MB-231 cells assessed as late apoptotic cells at 20 uM measured after 24 hrs by Annexin V-FITC/propidium iodide staining based flow cytometry (reference value: 0.57%); assay type: functional
MDA-MB-231 [12] = test: Induction of apoptosis in human MDA-MB-231 cells assessed as viable cells at 40 uM measured after 24 hrs by Annexin V-FITC/propidium iodide staining based flow cytometry (reference value: 98.46%); assay type: functional; settings: read-out: Activity
MDA-MB-231 [13] = test: Induction of apoptosis in human MDA-MB-231 cells assessed as early apoptotic cells at 40 uM measured after 24 hrs by Annexin V-FITC/propidium iodide staining based flow cytometry (reference value: 0.81%); assay type: functional
MDA-MB-231 [14] = test: Induction of apoptosis in human MDA-MB-231 cells assessed as necrotic cells at 40 uM measured after 24 hrs by Annexin V-FITC/propidium iodide staining based flow cytometry (reference value: 0.16%); assay type: functional
MDA-MB-231 [15] = test: Induction of apoptosis in human MDA-MB-231 cells assessed as upregulation of Bax expression at 10 to 40 uM measured after 24 hrs by Western blot analysis; assay type: functional, cell-based; settings: dose 10-40 µM
MDA-MB-231 [16] = test: Induction of apoptosis in human MDA-MB-231 cells assessed as down regulation of Bcl-2 expression at 10 to 40 uM measured after 24 hrs by Western blot analysis; assay type: functional, cell-based; settings: dose 10-40 µM
MDA-MB-231 [17] = test: Induction of apoptosis in human MDA-MB-231 cells assessed as increase in caspase-3 cleavage at 10 to 40 uM measured after 24 hrs by Western blot analysis; assay type: functional, cell-based; settings: dose 10-40 µM
MDA-MB-231 [18] = test: Induction of apoptosis in human MDA-MB-231 cells assessed as increase in caspase-8 cleavage at 10 to 40 uM measured after 24 hrs by Western blot analysis; assay type: functional, cell-based; settings: dose 10-40 µM
[19] = Upregulation of ATF4 gene expression in human MDA-MB-231 cells by Trizol reagent based RNA sequencing analysis relative to control; assay type: functional
[20] = Effect on PPP1R15A gene expression in human MDA-MB-231 cells by Trizol reagent based RNA sequencing analysis relative to control; assay type: functional
[21] = Effect on HYOU1 gene expression in human MDA-MB-231 cells by Trizol reagent based RNA sequencing analysis relative to control; assay type: functional
[22] = Effect on G0S2 gene expression in human MDA-MB-231 cells by Trizol reagent based RNA sequencing analysis relative to control; assay type: functional
[23] = Effect on STC2 gene expression in human MDA-MB-231 cells by Trizol reagent based RNA sequencing analysis relative to control; assay type: functional
[24] = Effect on TRIB3 gene expression in human MDA-MB-231 cells by Trizol reagent based RNA sequencing analysis relative to control; assay type: functional
[25] = Effect on MIA2 gene expression in human MDA-MB-231 cells by Trizol reagent based RNA sequencing analysis relative to control; assay type: functional
[26] = Effect on CXCL2 gene expression in human MDA-MB-231 cells by Trizol reagent based RNA sequencing analysis relative to control; assay type: functional
[27] = Effect on JUN gene expression in human MDA-MB-231 cells by Trizol reagent based RNA sequencing analysis relative to control; assay type: functional
[28] = Effect on GPT2 gene expression in human MDA-MB-231 cells by Trizol reagent based RNA sequencing analysis relative to control; assay type: functional
[29] = Effect on CSTA gene expression in human MDA-MB-231 cells by Trizol reagent based RNA sequencing analysis relative to control; assay type: functional
[30] = Effect on CASC10 gene expression in human MDA-MB-231 cells by Trizol reagent based RNA sequencing analysis relative to control; assay type: functional
[31] = Effect on ALPP gene expression in human MDA-MB-231 cells by Trizol reagent based RNA sequencing analysis relative to control; assay type: functional
[32] = Effect on CDHR4 gene expression in human MDA-MB-231 cells by Trizol reagent based RNA sequencing analysis relative to control; assay type: functional; settings: dose 10-40 µM; time 24 hrs
MDA-MB-231 [33] = test: Upregulation of PERK expression in human MDA-MB-231 cells at 10 to 40 uM measured after 24 hrs by Western blot analysis; assay type: functional, cell-based; settings: dose 10-40 µM
MDA-MB-231 [34] = test: Inhibition of PI3K/AKT/mTOR signaling in human MDA-MB-231 cells assessed as reduction in mTOR phosphorylation at 10 to 40 uM after 24 hrs by Western blot analysis; assay type: cell-based; settings: dose 10-40 µM
[35] = molecular target: Mitogen-activated protein kinase 8/9 (Homo sapiens) (UniProt P45983+P45984); test: Inhibition of JNK1/2 in human MDA-MB-231 cells assessed as reduction in c-JUN phosphorylation at Ser63 residues at 10 to 40 uM after 24 hrs by Western blot analysis; assay type: cell-based; settings: dose 10-40 µM
Mitogen-activated protein kinase 8/9 (Homo sapiens), sequence (P45983 whole entry, looked up): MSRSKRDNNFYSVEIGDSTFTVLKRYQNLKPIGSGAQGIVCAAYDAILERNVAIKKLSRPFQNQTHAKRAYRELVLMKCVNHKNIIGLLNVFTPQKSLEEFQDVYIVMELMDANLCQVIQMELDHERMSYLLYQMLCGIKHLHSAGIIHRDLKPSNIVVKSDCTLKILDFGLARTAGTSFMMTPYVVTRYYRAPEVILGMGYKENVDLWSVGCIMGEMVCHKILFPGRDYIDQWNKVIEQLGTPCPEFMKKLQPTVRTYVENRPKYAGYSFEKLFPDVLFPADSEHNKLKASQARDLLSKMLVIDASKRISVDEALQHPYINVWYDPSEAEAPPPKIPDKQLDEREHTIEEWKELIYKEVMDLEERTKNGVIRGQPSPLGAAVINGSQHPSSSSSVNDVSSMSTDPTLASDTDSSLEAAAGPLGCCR
Mitogen-activated protein kinase 8/9 (Homo sapiens), sequence (P45984 whole entry, looked up): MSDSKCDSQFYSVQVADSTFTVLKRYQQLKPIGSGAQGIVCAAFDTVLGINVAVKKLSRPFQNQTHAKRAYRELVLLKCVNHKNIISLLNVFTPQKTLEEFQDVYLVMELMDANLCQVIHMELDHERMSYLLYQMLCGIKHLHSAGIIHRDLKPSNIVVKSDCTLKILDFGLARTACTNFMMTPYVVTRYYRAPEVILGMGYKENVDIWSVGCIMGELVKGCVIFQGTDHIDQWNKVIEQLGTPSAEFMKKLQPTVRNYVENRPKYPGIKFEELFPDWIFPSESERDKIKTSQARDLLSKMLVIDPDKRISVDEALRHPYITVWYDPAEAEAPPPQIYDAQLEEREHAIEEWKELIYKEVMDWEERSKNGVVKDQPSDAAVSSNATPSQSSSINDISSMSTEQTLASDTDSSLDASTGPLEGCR

MDA-MB-231 [36] = test: Up regulation of E-cadherin expression in human MDA-MB-231 cells at 10 to 40 uM measured after 24 hrs by Western blot analysis; assay type: functional, cell-based; settings: dose 10-40 µM

Ratio IC50 (Homo sapiens): 5
pIC50 [1]: 5.86
inhibition [3]: Active
inhibition [4]: Active
inhibition [35]: Active
SMILES: O=C(Nc1cc(C(F)(F)F)cc(C(F)(F)F)c1)NC1CCN(c2ncnc3[nH]ncc23)CC1
Activity (MDA-MB-231 [2]): Active
Activity (MDA-MB-231 [5]): Dose-dependent effect
Activity (MDA-MB-231 [6]): 7.16%
Activity (MDA-MB-231 [7]): 3.22%
Activity (MDA-MB-231 [8]): 1.64%
viability at 20 µM (MDA-MB-231 [9]): 77.3%
Activity (MDA-MB-231 [10]): 15.2%
Activity (MDA-MB-231 [11]): 6.91%
viability at 40 µM (MDA-MB-231 [12]): 72.2%
Activity (MDA-MB-231 [13]): 14.79%
Activity (MDA-MB-231 [14]): 0.91%
Activity (MDA-MB-231 [15]): Active
Activity (MDA-MB-231 [16]): Active
Activity (MDA-MB-231 [17]): Active
Activity (MDA-MB-231 [18]): Active
fold change (FC) [19]: >2
fold change (FC) [20]: >2
fold change (FC) [21]: >2
fold change (FC) [22]: >2
fold change (FC) [23]: >2
fold change (FC) [24]: >2
fold change (FC) [25]: >2
fold change (FC) [26]: >2
fold change (FC) [27]: >2
fold change (FC) [28]: >2
fold change (FC) [29]: >2
fold change (FC) [30]: >2
fold change (FC) [31]: >2
fold change (FC) [32]: >2
Activity (MDA-MB-231 [33]): Active
inhibition (MDA-MB-231 [34]): Active
Activity (MDA-MB-231 [36]): Active
